Data published in article PMC11859184, “Synthesis and Evaluation of ^68Ga- and ^177Lu-Labeled [diF-Pro^14]Bombesin(6−14) Analogs for Detection and Radioligand Therapy of Gastrin-Releasing Peptide Receptor-Expressing Cancer” (Pharmaceuticals, 2025).
Where two headings read alike, the source gives them in different places.

Test: Ex vivo biodistribution of 177Lu-labeled ligands in PC-3 tumor-bearing mice
Details: mouse; for tissue to tissue ratio at 1 h / tissue uptake at 1 h: 1 h pi; for tissue to tissue ratio at 4 h / tissue uptake at 4 h: 4 h pi; for tissue to tissue ratio at 24 h / tissue uptake at 24 h: 24 h pi; for tissue to tissue ratio at 120 h / tissue uptake at 120 h: 120 h pi; for tissue uptake at 1 h / tissue uptake at 4 h / tissue uptake at 24 h / tissue uptake at 72 h / tissue uptake at 120 h: intravenous
Description: SPECT/CT imaging was conducted using an MI Labs (Houten, The Netherlands) U-SPECT-II/CT scanner with a custom-made ultra-high sensitivity big mouse collimator (2 mm pinhole size) following published procedure. The experiments were obtained in accordance with the same protocol established in the PET/CT imaging and ex vivo biodistributions section. The mice were used for SPECT/CT imaging and ex vivo biodistributions studies once the tumors reached a diameter of 5–8 mm. PC-3 tumor-bearing mice were sedated (2.5% isoflurane in O2) and injected with 31.4–36.9 MBq of the ^177Lu-labeled ligand through a lateral caudal tail vein. The mouse was imaged at 1, 4, 24, 72, and 120 h pi. At each time point, a 5 min CT scan was performed with 615 μA and 60 kV parameters for localization and attenuation, followed by two 30 min static SPECT scans in list mode with an energy window centered around 208 keV. The U-SPECT II software was used to reconstruct data, and the images were decay corrected to the time of injection with PMOD v 3.402 (PMOD Technologies GmbH, Fallanden, Switzerland).
For ex vivo biodistribution studies, the mice were injected with ~3–5 MBq of the ^177Lu-labeled ligand (n = 5). At 1, 4, 24, 72, and 120 h post-injection, the mice were anesthetized with 2% isoflurane, euthanized by CO2 inhalation, and the tissues/organs of interest were […] for radioactivity counting. The blocking study was performed at 1 h pi via co-injection of the ^177Lu-labeled ligand with 100 μg of [D-Phe^6,Leu-NHEt^13,des-Met^14]Bombesin(6–14).

[1] = male, NOD.Cg-Rag1^tm1Mom Il2rg^tm1Wjl/SzJ (NRG), tumor/blood, iv, total radioactivity, n = 5, read-out: Tumor/blood uptake ratio
[2] = male, NOD.Cg-Rag1^tm1Mom Il2rg^tm1Wjl/SzJ (NRG), tumor/kidney, iv, total radioactivity, n = 5, read-out: Tumor/kidney uptake ratio
[3] = male, NOD.Cg-Rag1^tm1Mom Il2rg^tm1Wjl/SzJ (NRG), tumor/muscle, iv, total radioactivity, n = 5, read-out: Tumor/muscle uptake ratio
[4] = male, NOD.Cg-Rag1^tm1Mom Il2rg^tm1Wjl/SzJ (NRG), tumor/pancreas, iv, total radioactivity, n = 5, read-out: Tumor/pancreas uptake ratio
[5] = PC-3 tumor, n = 5, read-out: PC-3 tumor uptake
[6] = adrenal glands, n = 5, read-out: Adrenal glands uptake
[7] = blood, n = 5, read-out: Blood uptake
[8] = bone, n = 5, read-out: Bone uptake
[9] = brain, n = 5, read-out: Brain uptake
[10] = fat, n = 5, read-out: Fat uptake
[11] = heart, n = 5, read-out: Heart uptake

tissue uptake (male, NOD.Cg-Rag1^tm1Mom Il2rg^tm1Wjl/SzJ (NRG), iv, total radioactivity, all time points, read-out: uptake in all other collected organs/tissues (other than tumor, pancreas, kidney)): < 1 %ID/g
tissue to tissue ratio at 1 h (male, NOD.Cg-Rag1^tm1Mom Il2rg^tm1Wjl/SzJ (NRG), tumor/blood, iv, total radioactivity, blocked (100 µg GRPR antagonist co-injected), read-out: Tumor/blood uptake ratio): 6.37 ± 1.92
tissue to tissue ratio at 1 h [1]: 16.1 ± 2.2
tissue to tissue ratio at 4 h [1]: 144 ± 33.5
tissue to tissue ratio at 24 h [1]: 813 ± 203
tissue to tissue ratio at 72 h (male, NOD.Cg-Rag1^tm1Mom Il2rg^tm1Wjl/SzJ (NRG), tumor/blood, iv, total radioactivity, 72 h pi, n = 5, read-out: Tumor/blood uptake ratio): 1120 ± 440
tissue to tissue ratio at 120 h [1]: 1630 ± 548
tissue to tissue ratio at 1 h (male, NOD.Cg-Rag1^tm1Mom Il2rg^tm1Wjl/SzJ (NRG), tumor/kidney, iv, total radioactivity, blocked (100 µg GRPR antagonist co-injected), read-out: Tumor/kidney uptake ratio): 0.89 ± 0.22
tissue to tissue ratio at 1 h [2]: 2.65 ± 0.64
tissue to tissue ratio at 4 h [2]: 2.96 ± 0.3
tissue to tissue ratio at 24 h [2]: 5.67 ± 1.43
tissue to tissue ratio at 72 h (male, NOD.Cg-Rag1^tm1Mom Il2rg^tm1Wjl/SzJ (NRG), tumor/kidney, iv, total radioactivity, 72 h pi, n = 5, read-out: Tumor/kidney uptake ratio): 8.43 ± 2.89
tissue to tissue ratio at 120 h [2]: 14.1 ± 4.53
tissue to tissue ratio at 1 h (male, NOD.Cg-Rag1^tm1Mom Il2rg^tm1Wjl/SzJ (NRG), tumor/muscle, iv, total radioactivity, blocked (100 µg GRPR antagonist co-injected), read-out: Tumor/muscle uptake ratio): 23.2 ± 5.2
tissue to tissue ratio at 1 h [3]: 78.3 ± 13
tissue to tissue ratio at 4 h [3]: 196 ± 53.1
tissue to tissue ratio at 24 h [3]: 520 ± 113
tissue to tissue ratio at 72 h (male, NOD.Cg-Rag1^tm1Mom Il2rg^tm1Wjl/SzJ (NRG), tumor/muscle, iv, total radioactivity, 72 h pi, n = 5, read-out: Tumor/muscle uptake ratio): 522 ± 189
tissue to tissue ratio at 120 h [3]: 744 ± 179
tissue to tissue ratio at 1 h (male, NOD.Cg-Rag1^tm1Mom Il2rg^tm1Wjl/SzJ (NRG), tumor/pancreas, iv, total radioactivity, blocked (100 µg GRPR antagonist co-injected), read-out: Tumor/pancreas uptake ratio): 6.72 ± 2.24
tissue to tissue ratio at 1 h [4]: 3.57 ± 0.42
tissue to tissue ratio at 4 h [4]: 4.91 ± 0.14
tissue to tissue ratio at 24 h [4]: 5.7 ± 0.81
tissue to tissue ratio at 72 h (male, NOD.Cg-Rag1^tm1Mom Il2rg^tm1Wjl/SzJ (NRG), tumor/pancreas, iv, total radioactivity, 72 h pi, n = 5, read-out: Tumor/pancreas uptake ratio): 8.37 ± 3.35
tissue to tissue ratio at 120 h [4]: 17.1 ± 2.1
tissue uptake at 1 h (PC-3 tumor, 100 ug, blocked (100 µg GRPR antagonist co-injected), read-out: PC-3 tumor uptake): 3.25 ± 0.44 %ID/g
tissue uptake at 1 h [5]: 9.59 ± 3.37 %ID/g
tissue uptake at 4 h [5]: 8.38 ± 0.19 %ID/g
tissue uptake at 24 h [5]: 5.78 ± 0.4 %ID/g
tissue uptake at 72 h (PC-3 tumor, 72 h pi, n = 5, read-out: PC-3 tumor uptake): 2.74 ± 0.85 %ID/g
tissue uptake at 120 h [5]: 2.19 ± 0.59 %ID/g
tissue uptake at 72 h (PC-3 tumor, after 72 h pi, read-out: tumor uptake): < 3 %ID/g
tissue uptake at 1 h (adrenal glands, 100 ug, blocked (100 µg GRPR antagonist co-injected), read-out: Adrenal glands uptake): 0.27 ± 0.06 %ID/g
tissue uptake at 1 h [6]: 0.46 ± 0.15 %ID/g
tissue uptake at 4 h [6]: 0.33 ± 0.15 %ID/g
tissue uptake at 24 h [6]: 0.36 ± 0.3 %ID/g
tissue uptake at 72 h (adrenal glands, 72 h pi, n = 5, read-out: Adrenal glands uptake): 0.13 ± 0.07 %ID/g
tissue uptake at 120 h [6]: 0.1 ± 0.02 %ID/g
tissue uptake at 1 h (blood, 100 ug, blocked (100 µg GRPR antagonist co-injected), read-out: Blood uptake): 0.43 ± 0.23 %ID/g
tissue uptake at 1 h [7]: 0.59 ± 0.18 %ID/g
tissue uptake at 4 h [7]: 0.06 ± 0.02 %ID/g
tissue uptake at 24 h [7]: 0.01 %ID/g
tissue uptake at 1 h (bone, 100 ug, blocked (100 µg GRPR antagonist co-injected), read-out: Bone uptake): 0.12 ± 0.04 %ID/g
tissue uptake at 1 h [8]: 0.23 ± 0.06 %ID/g
tissue uptake at 4 h [8]: 0.1 ± 0.08 %ID/g
tissue uptake at 24 h [8]: 0.02 ± 0.01 %ID/g
tissue uptake at 72 h (bone, 72 h pi, n = 5, read-out: Bone uptake): 0.02 %ID/g
tissue uptake at 120 h [8]: 0.02 %ID/g
tissue uptake at 1 h (brain, 100 ug, blocked (100 µg GRPR antagonist co-injected), read-out: Brain uptake): 0.02 ± 0.01 %ID/g
tissue uptake at 1 h [9]: 0.02 ± 0.01 %ID/g
tissue uptake at 4 h [9]: 0.01 %ID/g
tissue uptake at 1 h (fat, 100 ug, blocked (100 µg GRPR antagonist co-injected), read-out: Fat uptake): 0.06 ± 0.03 %ID/g
tissue uptake at 1 h [10]: 0.08 ± 0.02 %ID/g
tissue uptake at 4 h [10]: 0.02 ± 0.01 %ID/g
tissue uptake at 24 h [10]: 0.01 %ID/g
tissue uptake at 120 h [10]: 0.01 ± 0.01 %ID/g
tissue uptake at 1 h (heart, 100 ug, blocked (100 µg GRPR antagonist co-injected), read-out: Heart uptake): 0.13 ± 0.05 %ID/g
tissue uptake at 1 h [11]: 0.19 ± 0.05 %ID/g
tissue uptake at 4 h [11]: 0.06 ± 0.02 %ID/g
tissue uptake at 24 h [11]: 0.02 %ID/g
SMILES: CC(C)C[C@H](NC(=O)[C@H](Cc1cnc[nH]1)N(C)C(=O)CNC(=O)[C@@H](NC(=O)[C@H](C)NC(=O)[C@H](Cc1c[nH]c2ccccc12)NC(=O)[C@H](CCC(N)=O)NC(=O)[C@@H](Cc1ccccc1)NC(=O)CN1CCC(NC(=O)CN2CCN(CC(=O)O)CCN(CC(=O)O)CCN(CC(=O)O)CC2)CC1)C(C)(C)C)C(=O)N1CC(F)(F)C[C@H]1C(N)=O [[^177Lu]Lu-LW02060, metal not drawn]
